What all share (assay type): cell-based
One assay relates to LS411N cells. The experiment in a line: DHX9 cellular proliferation assay (CellTiter-Glo), LS411N (CRC-MSI). The note with it: Homo sapiens, LS-411N, read-out: LS411N (CRC-MSI-H) Antiproliferative IC50. On the technique in general: ATP-based viability assays read luminescence as a measure of living cells.
The next assay concerns NCI-H747 cells. The experiment in a line: DHX9 cellular proliferation assay (CellTiter-Glo), NCI-H747 (CRC-MSS). The note with it: Homo sapiens.
Assay [1] concerns circBRIP1 in HCT116 cells. Kind of assay: DHX9 circBRIP1 cellular target engagement TaqMan Multiplex assay (qPCR). The settings on record: Homo sapiens. In general terms: Quantitative PCR measures a nucleic acid by following its amplification.
Where [2] appears, read: LS411N, CRC-MSI-H, performed at Pharmaron.
[3] abbreviates: NCI-H747, NCI-H747, CRC-MSS, performed at Pharmaron, read-out: H747 (CRC-MSS) Antiproliferative IC50.
The mark [4] stands for this setting: HCT-116, 72 h, circBRIP1, HCT116 cells, 72 hours, Taqman assay (marked *), read-out: DHX9 Cellular Target Engagement EC50.
Where [5] appears, read: NCI-H747, NCI-H747, performed at Pharmaron, read-out: H747 (CRC-MSS) Antiproliferative IC50.
The mark [6] stands for this setting: HCT-116, circBRIP1, HCT116 cells, * Taqman assay was used, read-out: DHX9 Cellular Target Engagement EC50.

Where two headings read alike, the source gives them in different places.

As a reminder, the IC50 is the concentration needed to halve the response being measured. As usually defined, the EC50 is the midpoint of the concentration-response curve. For the compound `Cc1sc(C(=O)Nc2cc(Cl)cc(NS(C)(=O)=O)c2)cc1-c1ncc(OC(C)C)cn1` [Example 541, N-(3-chloro-5-(methylsulfonamido)phenyl)-4-(5-isopropoxypyrimidin-2-yl)-5-methylthiophene-2-carboxamide], the IC50 was determined as 49.8 nM with LS411N cells and 6000 nM in the assay with NCI-H747 cells (NCI-H747, read-out: H747 (CRC-MSS) Antiproliferative IC50). In addition, the EC50 in assay [1] (HCT-116, read-out: DHX9 Cellular Target Engagement EC50 (μM)) worked out at 0.0377 µM.

As for `COc1cc(F)cnc1-c1cc(C(=O)Nc2cc(Cl)cc(NS(C)(=O)=O)c2)sc1C` [Example 351], the 50% inhibitory concentration (IC50) in the assay with LS411N cells (setting [2]) was 82 nM; in the assay on NCI-H747 cells (setting [3]), greater than 10000 nM. Also, the EC50 in assay [1] (setting [4]) amounted to 0.0286 µM.

For `Cc1sc(C(=O)Nc2cc(Cl)cc(NS(C)(=O)=O)c2)cc1-c1ccc(N2CC(F)(F)C2)cn1` [Example 533], the IC50 in the assay with LS411N cells (LS411N, performed at Pharmaron) worked out at 73.9 nM; with NCI-H747 cells (setting [5]), 4810 nM. Besides, the EC50 in assay [1] (setting [6]) was 0.0145 µM.

`Cc1sc(C(=O)Nc2cc(Cl)cc(NS(C)(=O)=O)c2)cc1-c1ncc(N2CC(F)(F)C2)cc1OC(C)C` [Example 534]: the IC50 in the assay with LS411N cells (LS411N, performed at Pharmaron) was 55.4 nM; in the assay on NCI-H747 cells (setting [5]), greater than 10000 nM. Further, the 50% effective concentration (EC50) in assay [1] (setting [6]) stood at 0.0876 µM.

As to `Cn1cc(C(=O)Nc2cc(Cl)cc(NS(C)(=O)=O)c2)cc1-c1ncc(OC2CN(CC(F)(F)F)C2)cc1F` [Example 615], the IC50 is 71.3 nM in the assay with LS411N cells (LS411N, performed at Pharmaron) and 7560 nM in the assay with NCI-H747 cells (setting [5]). For the same compound, the EC50 in assay [1] (setting [6]) was found to be 0.133 µM.

Consider `Cn1cc(C(=O)Nc2cc(Cl)cc(NS(C)(=O)=O)c2)cc1-c1ncc(OC(C)(C)C)cc1F` [Example 557], for which the IC50 stood at 131 nM with LS411N cells (LS411N, performed at Pharmaron) and 2300 nM with NCI-H747 cells (setting [5]). Also, the EC50 in assay [1] (setting [6]) came to 0.0926 µM.

As for `Cc1sc(C(=O)Nc2cc(Cl)cc(NS(C)(=O)=O)c2)cc1-c1ncc(N2CCC(F)(F)C2)cc1F` [Example 484], the IC50 in the assay on LS411N cells (LS411N, performed at Pharmaron) was found to be 66.2 nM; in the assay with NCI-H747 cells (setting [5]), 2600 nM. Moreover, the EC50 in assay [1] (setting [6]) is 0.0318 µM.

For `CCS(=O)(=O)Nc1cc(Cl)cc(NC(=O)c2cc(-c3ccc(F)cn3)c(C)s2)c1` [Example 346], the values for the IC50 with LS411N cells (setting [2]) and with NCI-H747 cells (setting [3]) were 71.6 nM and 7340 nM, respectively. Moreover, in assay [1] (setting [4]), the EC50 came out at 0.0438 µM.

With `CS(=O)(=O)Nc1cc(Cl)cc(NC(=O)c2cc(-c3ncc(N4CC(F)(F)C4)cn3)cs2)c1` [Example 486], the IC50 with LS411N cells (LS411N, performed at Pharmaron) stood at 112 nM; with NCI-H747 cells (setting [5]), 1990 nM. The EC50 in assay [1] (setting [6]) was found to be 0.0311 µM.

On to `CCS(=O)(=O)Nc1cc(Cl)cc(NC(=O)c2cc(-c3ccc(F)cn3)n(C)c2)c1` [Example 579], for which the IC50 was 329 nM in the assay on LS411N cells (LS411N, performed at Pharmaron) and greater than 10000 nM in the assay with NCI-H747 cells (setting [5]). The EC50 in assay [1] (setting [6]) amounted to 0.103 µM.

With `Cc1sc(C(=O)Nc2cc(Cl)cc(NS(C)(=O)=O)c2)cc1-c1ncc(N2CC(F)(F)C2)cc1OCC(F)(F)F` [Example 707], the IC50 was determined as 68.5 nM with LS411N cells (LS411N, performed at Pharmaron) and 5360 nM in the assay on NCI-H747 cells (setting [5]). Moreover, the EC50 in assay [1] (setting [6]) was 0.0254 µM.

As for `Cc1cc(C(=O)Nc2cc(Cl)cc(NS(C)(=O)=O)c2)cn1-c1ncc(N2CC(F)(F)C2)cc1C#N` [Example 415], the IC50 in the assay with LS411N cells (LS411N, performed at Pharmaron) is 502 nM; with NCI-H747 cells (setting [5]), 7150 nM. The EC50 in assay [1] (setting [6]) was determined as 0.0689 µM.

Turning to `Cc1sc(C(=O)Nc2cc(Cl)cc(NS(C)(=O)=O)c2)cc1-c1ncc(F)cc1C#CC(C)(C)O` [Example 696], the IC50 was 45.1 nM in the assay with LS411N cells (LS411N, performed at Pharmaron) and 7700 nM with NCI-H747 cells (setting [5]). Besides, the EC50 in assay [1] (setting [6]) was 0.0367 µM.

As to `Cn1cc(C(=O)Nc2cc(Cl)cc(NS(C)(=O)=O)c2)cc1-c1ncc(F)cc1F` [Example 540, N-(3-chloro-5-methanesulfonamidophenyl)-5-(3,5-difluoropyridin-2-yl)-1-methyl-1H-pyrrole-3-carboxamide], the half-maximal inhibitory concentration (IC50) in the assay with LS411N cells (LS411N, performed at Pharmaron) was 175 nM; in the assay with NCI-H747 cells (setting [5]), 7910 nM. The EC50 in assay [1] (HCT-116, circBRIP1, HCT116 cells, cell carries no mark, SyBr or Taqman not indicated, read-out: DHX9 Cellular Target Engagement EC50) amounted to 0.0741 µM.

Regarding `Cc1sc(C(=O)Nc2cc(Cl)cc(NS(C)(=O)=O)c2)cc1-c1ncc(C2(F)COC2)cn1` [Example 680], the IC50 in the assay with LS411N cells (LS411N, performed at Pharmaron) turned out to be 208 nM; in the assay on NCI-H747 cells (setting [5]) it was 8760 nM. Further, the EC50 in assay [1] (setting [6]) came to 0.031 µM.

Regarding `Cc1sc(C(=O)Nc2cc(Cl)cc(NS(C)(=O)=O)c2)cc1-c1ccc(N2CC3(C2)CC(F)(F)C3)cn1` [Example 499], the IC50 was 65.7 nM in the assay with LS411N cells (LS411N, performed at Pharmaron) and greater than 10000 nM with NCI-H747 cells (setting [5]). Besides, the EC50 in assay [1] (setting [6]) worked out at 0.0248 µM.

The values above are taken from patent US12162867B2, “Inhibitors of RNA helicase DHX9 and uses thereof” (ACCENT THERAPEUTICS, INC., priority 2022, dated 2024).
